Columns and labels:
Test in all cases: whole plant or invertebrate
Format in all cases: in vivo
[1] = test system: cotton melon aphid (Aphis gossypii Glover)
Method in brief: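 Cotton plants (6–7 days old) pre-infested with 30–40 aphids by cut-leaf method, sprayed with compound (ppm) in 10% acetone/90% water with 300 ppm X-77 surfactant, three replicates. Held 6 days at 19–21 °C, 50–70% RH; contact and/or systemic control assessed.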

[2] = test system: potato leafhopper (Empoasca fabae Harris); details: alone
Method in brief: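 Bean plants (5–6 days old, one primary leaf excised) were sprayed with 1 mL of compound in 10% acetone/water with 300 ppm X-77 surfactant, 3 replicates. After drying for 1 h, each unit was infested with 5 adult leafhoppers. Units were held 6 days at 19–21 °C and 50–70% RH.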

[3] = test system: green peach aphid (Myzus persicae Sulzer); details: Green Peach Aphid
Method in brief: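 Compounds formulated in 10% acetone/water with 300 ppm X-77 surfactant were atomized onto aphid-infested radish seedlings, with three replicates per treatment. Infestation was 30–40 aphids transferred on excised leaf pieces, covering contact and systemic exposure. Test units stayed 6 days in a growth chamber at 19–21 °C and 50–70% relative humidity.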

[4] = test system: silverleaf whitefly (Bemisia argentifolii Bellows and Perring); details: Table 2B
Method in brief: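 Whitefly-egg-infested 12–14-day-old cotton plants sprayed with compound in 10% acetone/90% water plus 300 ppm non-ionic surfactant, in triplicate. Plants then held 13 days at 28 °C and 50–70% relative humidity before mortality assessment.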

[5] = test system: corn planthopper (Peregrines maidis); details: Corn Plant Hopper
Method in brief: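 Compounds in 10% acetone/90% water with 300 ppm X-77 surfactant sprayed (3 replications) onto 3- to 4-day-old corn plants, dried 1 h, then infested with 10–20 corn planthopper nymphs aged 18–20 days. Held 6 days at 19-21° C. and 50-70% relative humidity; contact and/or systemic control assessed.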

[6] = test system: diamondback moth (Plutella xylostella)
Protocol: The test compounds were dissolved in water. […] Serial dilutions were made to obtain the appropriate concentrations. To obtain the desired mixture concentrations of each compound, twice the desired concentration of each of the two mixture partner compounds were mixed together in equal volumes.
The diluted solutions of the test compounds were sprayed to run-off on three-week-old tomato plants. The plants were placed on a rotating turntable sprayer (10 rpm). Test solutions were applied using a flat fan air-assisted nozzle (Spraying Systems 122440) at 10 psi (69 kPa). […] The leaves were cut into pieces, which were placed singly into 5.5 cm-by-3.5 cm cells of a sixteen-cell plastic tray. Each cell contained a 2.5-cm square of moistened chromatography paper to prevent desiccation. One insect was placed in each cell. There two trays per treatment. Trays were held in the growth chamber at 25° C., 16-hour light:8-hour dark, 60% relative humidity for 4 days.
For evaluating control of diamondback moth (Plutella xylostella), cabbage (var. Stonehead) plants were grown in Metromix potting soil in 10-cm pots in aluminum trays to test size (28 days, 3-4 full leaves) the plants were sprayed to the point of runoff using the turntable sprayer as described in Test I. Test compounds were formulated and sprayed on test plants as described for Test I. After drying for 2 hours, the treated leaves were excised and infested with one cabbage looper per cell and covered. The test units were placed on trays and put in a growth chamber at 25° C. and 60% relative humidity for 4 days.

[7] = test system: western flower thrip (Frankliniella occidentalis Pergande); details: single compound, spray, 7 days
Method in brief: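 Compounds in 10% acetone/90% water with 300 ppm non-ionic surfactant were sprayed onto 5- to 7-day-old bean plants, 3 replicates. After 1 h drying, 22–27 adult thrips were added per unit. Units were held 7 days at 25° C, 45–55% RH, assessing contact and/or systemic control.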

Thiamethoxam
% mortality (obs) ([1]; rate 0.2 ppm): 24%
% mortality (obs) ([1]; rate 0.4 ppm): 48%
% mortality (obs) ([1]; rate 0.6 ppm): 66%
% mortality (obs) ([2]; rate 0.1 ppm): 80%
% mortality (obs) ([2]; rate 0.2 ppm): 100%
% mortality (obs) ([2]; rate 0.4 ppm): 100%
% mortality (obs) ([3]; rate 0.2 ppm): 35%
% mortality (obs) ([3]; rate 0.4 ppm): 94%
% mortality (obs) ([3]; rate 0.6 ppm): 100%
% mortality (obs) ([4]; rate 5 ppm): 15%
% mortality (obs) ([4]; rate 15 ppm): 78%
% mortality (obs) ([4]; rate 30 ppm): 92%
% mortality (obs) ([5]; rate 0.2 ppm): 100%
% mortality (obs) ([5]; rate 0.4 ppm): 100%
% mortality (obs) ([5]; rate 0.6 ppm): 100%
% mortality (obs) ([6]; rate 30 ppm): 90%
% mortality (obs) ([6]; rate 40 ppm): 100%
% mortality (obs) ([6]; rate 50 ppm): 100%
% mortality (obs) ([7]; rate 5 ppm): 20%
% mortality (obs) ([7]; rate 50 ppm): 80%
% mortality (obs) ([7]; rate 250 ppm): 90%

Spinosad
% mortality (obs) ([1]; rate 10 ppm): 16%
% mortality (obs) ([1]; rate 100 ppm): 35%
% mortality (obs) ([1]; rate 1000 ppm): 30%
% mortality (obs) ([2]; rate 30 ppm): 73%
% mortality (obs) ([2]; rate 100 ppm): 80%
% mortality (obs) ([2]; rate 110 ppm): 47%
% mortality (obs) ([3]; rate 10 ppm): 25%
% mortality (obs) ([3]; rate 100 ppm): 46%
% mortality (obs) ([3]; rate 1000 ppm): 59%
% mortality (obs) ([4]; rate 100 ppm): 66%
% mortality (obs) ([4]; rate 150 ppm): 69%
% mortality (obs) ([4]; rate 300 ppm): 95%
% mortality (obs) ([5]; rate 5 ppm): 100%
% mortality (obs) ([5]; rate 10 ppm): 100%
% mortality (obs) ([5]; rate 20 ppm): 100%
% mortality (obs) ([6]; rate 10 ppm): 100%
% mortality (obs) ([6]; rate 100 ppm): 90%
% mortality (obs) ([6]; rate 1000 ppm): 100%
% mortality (obs) ([7]; rate 0.1 ppm): 20%
% mortality (obs) ([7]; rate 0.5 ppm): 60%
% mortality (obs) ([7]; rate 3 ppm): 90%

N#CCNC(=O)c1cnccc1C(F)(F)F [Flonicamid]
% mortality (obs) ([1]; rate 0.2 ppm): 9%
% mortality (obs) ([1]; rate 1 ppm): 46%
% mortality (obs) ([1]; rate 5 ppm): 92%
% mortality (obs) ([2]; rate 100 ppm): 100%
% mortality (obs) ([2]; rate 400 ppm): 100%
% mortality (obs) ([2]; rate 1000 ppm): 40%
% mortality (obs) ([3]; rate 0.1 ppm): 16%
% mortality (obs) ([3]; rate 0.2 ppm): 10%
% mortality (obs) ([3]; rate 2 ppm): 33%
% mortality (obs) ([4]; rate 0.1 ppm): 2%
% mortality (obs) ([4]; rate 0.2 ppm): 2%
% mortality (obs) ([4]; rate 0.5 ppm): 2%
% mortality (obs) ([5]; rate 2 ppm): 52%
% mortality (obs) ([5]; rate 15 ppm): 42%
% mortality (obs) ([5]; rate 150 ppm): 90%
% mortality (obs) ([6]; rate 1 ppm): 0%
% mortality (obs) ([6]; rate 15 ppm): 60%
% mortality (obs) ([6]; rate 1000 ppm): 30%
% mortality (obs) ([7]; rate 10 ppm): 20%
% mortality (obs) ([7]; rate 100 ppm): 80%
% mortality (obs) ([7]; rate 1000 ppm): 70%

Dieldrin
% mortality (obs) ([1]; rate 1 ppm): 13%
% mortality (obs) ([1]; rate 5 ppm): 26%
% mortality (obs) ([1]; rate 50 ppm): 66%
% mortality (obs) ([2]; rate 2.5 ppm): 27%
% mortality (obs) ([2]; rate 5 ppm): 100%
% mortality (obs) ([2]; rate 10 ppm): 100%
% mortality (obs) ([3]; rate 10 ppm): 59%
% mortality (obs) ([3]; rate 100 ppm): 43%
% mortality (obs) ([3]; rate 1000 ppm): 41%
% mortality (obs) ([4]; rate 10 ppm): 0%
% mortality (obs) ([4]; rate 100 ppm): 0%
% mortality (obs) ([4]; rate 1000 ppm): 0%
% mortality (obs) ([5]; rate 0.1 ppm): 37%
% mortality (obs) ([5]; rate 0.2 ppm): 57%
% mortality (obs) ([5]; rate 0.3 ppm): 71%
% mortality (obs) ([6]; rate 2 ppm): 90%
% mortality (obs) ([6]; rate 2.5 ppm): 100%
% mortality (obs) ([6]; rate 3 ppm): 100%
% mortality (obs) ([7]; rate 10 ppm): 10%
% mortality (obs) ([7]; rate 100 ppm): 20%
% mortality (obs) ([7]; rate 1000 ppm): 30%

Cc1ccc(/N=C/N(C)/C=N/c2ccc(C)cc2C)c(C)c1 [Amitraz]
mortality at 10 ppm ([1]; Aphis gossypii, rate 10 ppm, read-out: % mortality (obs)): 20%
mortality at 100 ppm ([1]; Aphis gossypii, rate 100 ppm, read-out: % mortality (obs)): 35%
mortality at 1000 ppm ([1]; Aphis gossypii, rate 1000 ppm, read-out: % mortality (obs)): 29%
mortality at 10 ppm ([2]; Empoasca fabae, rate 10 ppm, read-out: % mortality (obs)): 0%
mortality at 100 ppm ([2]; Empoasca fabae, rate 100 ppm, read-out: % mortality (obs)): 7%
mortality at 1000 ppm ([2]; Empoasca fabae, rate 1000 ppm, read-out: % mortality (obs)): 13%
mortality at 10 ppm ([3]; Myzus persicae, in Raphanus sativus, rate 10 ppm, read-out: % mortality (obs)): 16%
mortality at 100 ppm ([3]; Myzus persicae, in Raphanus sativus, rate 100 ppm, read-out: % mortality (obs)): 12%
mortality at 1000 ppm ([3]; Myzus persicae, in Raphanus sativus, rate 1000 ppm, read-out: % mortality (obs)): 34%
mortality at 500 ppm ([4]; Bemisia argentifolii, in Gossypium hirsutum, rate 500 ppm, read-out: % mortality (obs)): 5%
mortality at 1000 ppm ([4]; Bemisia argentifolii, in Gossypium hirsutum, rate 1000 ppm, read-out: % mortality (obs)): 0%
mortality at 2000 ppm ([4]; Bemisia argentifolii, in Gossypium hirsutum, rate 2000 ppm, read-out: % mortality (obs)): 0%
mortality at 5 ppm ([5]; rate 5 ppm, read-out: % mortality (obs)): 6%
mortality at 10 ppm ([5]; rate 10 ppm, read-out: % mortality (obs)): 3%
mortality at 50 ppm ([5]; rate 50 ppm, read-out: % mortality (obs)): 5%
mortality at 10 ppm ([6]; Plutella xylostella, in Brassica oleracea, rate 10 ppm, read-out: % mortality (obs)): 70%
mortality at 100 ppm ([6]; Plutella xylostella, in Brassica oleracea, rate 100 ppm, read-out: % mortality (obs)): 20%
mortality at 1000 ppm ([6]; Plutella xylostella, in Brassica oleracea, rate 1000 ppm, read-out: % mortality (obs)): 50%
mortality at 10 ppm ([7]; Frankliniella occidentalis, 168 h, rate 10 ppm, read-out: % mortality (obs)): 40%
mortality at 100 ppm ([7]; Frankliniella occidentalis, 168 h, rate 100 ppm, read-out: % mortality (obs)): 30%
mortality at 1000 ppm ([7]; Frankliniella occidentalis, 168 h, rate 1000 ppm, read-out: % mortality (obs)): 20%

Reference: patent US8937089B2, “Synergistic mixtures of anthranilamide invertebrate pest control agents” (priority 2004, dated 2015)
